Values joined by “and” are separate entries in the source; they are usually repeats but may differ in a detail not shown here. Equal values may be shown once.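 1) Cells in 96-well plates. 2) Compound, 48 h, 5 concentrations. 3) Linear interpolation between surrounding doses. 4) Unreached endpoint = highest concentration. GI50 is the concentration that inhibits growth by half. TGI marks complete inhibition of growth.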 Where a SMILES comes first, the peptide text is derived from it. [ ]: non-standard residue; d: D form. The star is where a group is joined. ξ: configuration not given here. X37 = O=C(OCc1ccccc1)[C@@H]1CCC[C@H]1N*; Fmoc = O=C(OCC1c2ccccc2-c2ccccc21)*; ξW = NC(Cc1c[nH]c2ccccc12)C(=O)O; ξF = NC(Cc1ccccc1)C(=O)O; Boc = CC(C)(C)OC(=O)*; ξK = NCCCCC(N)C(=O)O; ξT = CC(O)C(N)C(=O)O; OBn = c1ccc(CO*)cc1; Bn = c1ccc(C*)cc1; tBu = CC(C)(C)*
Columns and labels:
Test in all cases: DTP human tumour cell line panel, 48 h
CAKI-1 renal = test system: CAKI-1 renal
DU-145 prostate = test system: DU-145 prostate
HT29 colon = test system: HT29 colon
MCF7 breast = test system: MCF7 breast
MDA-MB-435 = test system: MDA-MB-435
MDA-N = test system: MDA-N
NCI-H226 lung = test system: NCI-H226 lung
NCI-H23 lung = test system: NCI-H23 lung
OVCAR-4 ovarian = test system: OVCAR-4 ovarian
RXF 393 renal = test system: RXF 393 renal
SK-MEL-5 melanoma = test system: SK-MEL-5 melanoma
U251 CNS = test system: U251 CNS

CCC1=C(C)C2=NC1=CC1=NC(=C(CC)/C1=C/O)C=C1N=C3C(=C1C)C(=O)C(C(=O)OC)C3=C1NC(=C2)C(C)C1CCC(=O)OC (centres undefined)
TGI (CAKI-1 renal): > 100 µM | TGI (DU-145 prostate): > 100 µM | TGI (HT29 colon): > 100 µM | TGI (MCF7 breast): > 100 µM | TGI (MDA-MB-435): > 100 µM | TGI (MDA-N): > 100 µM | TGI (NCI-H226 lung): > 100 µM | TGI (NCI-H23 lung): > 100 µM | TGI (OVCAR-4 ovarian): > 100 µM | TGI (RXF 393 renal): > 100 µM | TGI (SK-MEL-5 melanoma): > 100 µM | TGI (U251 CNS): > 100 µM

CC(=O)OCC1OC(n2c(-c3ccccc3)c(N=Nc3ccc(Cl)cc3)c(C)c(C#N)c2=S)C(OC(C)=O)C(OC(C)=O)C1OC(C)=O (centres undefined)
TGI (CAKI-1 renal): 63.9 µM and > 100 µM | GI50 (DU-145 prostate): 25.3 µM and > 100 µM | TGI (DU-145 prostate): > 100 µM | GI50 (HT29 colon): 20.1 µM and 87.7 µM | TGI (HT29 colon): 49.1 µM and > 100 µM | GI50 (MCF7 breast): 10.2 µM and 28.2 µM | TGI (MCF7 breast): 24.4 µM and > 100 µM | TGI (MDA-MB-435): 41.1 µM and > 100 µM | TGI (MDA-N): > 100 µM | GI50 (NCI-H23 lung): 2.75 µM and 22.3 µM | TGI (NCI-H23 lung): 14.9 µM and > 100 µM | GI50 (OVCAR-4 ovarian): 13.8 µM and 31.8 µM | TGI (OVCAR-4 ovarian): > 100 µM | TGI (RXF 393 renal): 35.6 µM and 48.8 µM | GI50 (SK-MEL-5 melanoma): 4.01 µM and 10.4 µM | TGI (SK-MEL-5 melanoma): 14.4 µM and 54.8 µM | GI50 (U251 CNS): 3.79 µM and 24 µM | TGI (U251 CNS): 15.6 µM and 74.4 µM

COc1ccc2c(c1)CC[C@@H]1C2CC[C@]2(C)OC(=O)CCC12 (some centres undefined)
TGI (CAKI-1 renal): > 100 µM | TGI (DU-145 prostate): > 100 µM | TGI (HT29 colon): 59.2 µM | TGI (MCF7 breast): 35.2 µM | TGI (MDA-MB-435): > 100 µM | TGI (MDA-N): 62.1 µM | TGI (NCI-H226 lung): 36.7 µM | TGI (NCI-H23 lung): 38.4 µM | TGI (OVCAR-4 ovarian): 28.1 µM | TGI (RXF 393 renal): 29 µM | TGI (SK-MEL-5 melanoma): 29.5 µM | TGI (U251 CNS): 21 µM

Cc1cn2c(/C=C3/C(=O)Nc4ccccc43)c(-c3ccccc3)nc2s1
TGI (CAKI-1 renal): > 100 µM | TGI (DU-145 prostate): > 100 µM | TGI (HT29 colon): > 100 µM | TGI (MCF7 breast): > 100 µM | TGI (MDA-MB-435): > 100 µM | TGI (MDA-N): > 100 µM | TGI (NCI-H23 lung): > 100 µM | TGI (RXF 393 renal): 55.2 µM | TGI (SK-MEL-5 melanoma): > 100 µM | TGI (U251 CNS): > 100 µM

CC(=O)OCc1ccc(-c2nc(C#N)c(N)o2)o1
TGI (CAKI-1 renal): > 10 µM | TGI (DU-145 prostate): > 10 µM | TGI (HT29 colon): > 10 µM | TGI (MCF7 breast): > 10 µM | TGI (MDA-MB-435): > 10 µM | TGI (MDA-N): > 10 µM | TGI (NCI-H226 lung): > 10 µM | TGI (NCI-H23 lung): > 10 µM | TGI (OVCAR-4 ovarian): > 10 µM | TGI (RXF 393 renal): > 10 µM | TGI (SK-MEL-5 melanoma): > 10 µM

CC(C)(C)NCC(O)COc1cccc2[nH]c(C#N)cc12 (centres undefined)
TGI (CAKI-1 renal): > 100 µM | TGI (DU-145 prostate): > 100 µM | TGI (HT29 colon): > 100 µM | TGI (MCF7 breast): > 100 µM | TGI (MDA-MB-435): > 100 µM | TGI (MDA-N): > 100 µM | TGI (NCI-H226 lung): > 100 µM | TGI (NCI-H23 lung): > 100 µM | TGI (OVCAR-4 ovarian): > 100 µM | TGI (SK-MEL-5 melanoma): > 100 µM | TGI (U251 CNS): > 100 µM

COC(=O)C1Cc2c([nH]c3ccccc23)-c2[nH]c3ccccc3c2CC(NC(C)=O)C(=O)NCC(=O)N1 (centres undefined)
TGI (CAKI-1 renal): > 100 µM | TGI (DU-145 prostate): > 100 µM | TGI (HT29 colon): > 100 µM | TGI (MCF7 breast): > 100 µM | TGI (MDA-MB-435): > 100 µM | TGI (MDA-N): > 100 µM | TGI (NCI-H226 lung): > 100 µM | TGI (NCI-H23 lung): > 100 µM | TGI (OVCAR-4 ovarian): > 100 µM | TGI (RXF 393 renal): > 100 µM | TGI (SK-MEL-5 melanoma): > 100 µM | TGI (U251 CNS): > 100 µM

COc1ccc2cc(C(=O)NCCc3ccccc3)ccc2c1OC
TGI (CAKI-1 renal): > 100 µM | TGI (DU-145 prostate): > 100 µM | TGI (HT29 colon): > 100 µM | TGI (MCF7 breast): > 100 µM | TGI (MDA-MB-435): > 100 µM | TGI (MDA-N): > 100 µM | TGI (NCI-H226 lung): > 100 µM | TGI (NCI-H23 lung): > 100 µM | TGI (OVCAR-4 ovarian): > 100 µM | TGI (RXF 393 renal): 70.7 µM | TGI (SK-MEL-5 melanoma): > 100 µM | TGI (U251 CNS): > 100 µM

CC1(C)OC1CC/C(=C/CBr)CBr (centres undefined)
TGI (CAKI-1 renal): 32.3 µM | TGI (DU-145 prostate): 55.6 µM | TGI (HT29 colon): 30 µM | TGI (MCF7 breast): 28.5 µM | TGI (MDA-MB-435): 31.9 µM | TGI (MDA-N): 29.3 µM | TGI (NCI-H226 lung): 48.4 µM | TGI (NCI-H23 lung): 29.6 µM | TGI (OVCAR-4 ovarian): 32.1 µM | TGI (RXF 393 renal): 31.2 µM | TGI (SK-MEL-5 melanoma): 27.5 µM | TGI (U251 CNS): 29.3 µM

CC(OC(C)(C)C)C(NC(=O)C(CCCCNC(=O)OC(C)(C)C)NC(=O)C(Cc1c[nH]c2ccccc12)NC(=O)C(Cc1ccccc1)NC(=O)OCC1c2ccccc2-c2ccccc21)C(=O)NC(Cc1ccccc1)C(=O)N[C@@H]1CCC[C@H]1C(=O)OCc1ccccc1 (some centres undefined) (Fmoc-[ξF][ξW][ξK](Boc)[ξT](tBu)[ξF]-X37)
TGI (CAKI-1 renal): > 100 µM | TGI (DU-145 prostate): > 100 µM | TGI (HT29 colon): > 100 µM | TGI (MCF7 breast): > 100 µM | TGI (MDA-MB-435): > 100 µM | TGI (MDA-N): > 100 µM | TGI (NCI-H226 lung): > 100 µM | TGI (NCI-H23 lung): > 100 µM | TGI (OVCAR-4 ovarian): > 100 µM | TGI (RXF 393 renal): > 100 µM | TGI (SK-MEL-5 melanoma): > 100 µM | TGI (U251 CNS): > 100 µM

CC(C)CC(NC(=O)C(Cc1ccccc1)NC(=O)C(COCc1ccccc1)NC(=O)OC(C)(C)C)C(=O)OCc1ccccc1 (stereo not drawn) (Boc-Ser(Bn)-Phe-Leu-OBn; configuration not given here)
TGI (CAKI-1 renal): > 100 µM | TGI (DU-145 prostate): 25.2 µM | TGI (HT29 colon): 43.9 µM | TGI (MCF7 breast): > 100 µM | TGI (MDA-N): > 100 µM | TGI (NCI-H23 lung): 43.2 µM | TGI (OVCAR-4 ovarian): > 100 µM | TGI (U251 CNS): 53.2 µM

NC12c3c4cccc3Oc3cccc(c31)Oc1cccc(c12)O4
TGI (CAKI-1 renal): > 50 µM | TGI (DU-145 prostate): > 50 µM | TGI (HT29 colon): > 50 µM | TGI (MCF7 breast): > 50 µM | TGI (MDA-MB-435): > 50 µM | TGI (MDA-N): > 50 µM | TGI (NCI-H226 lung): > 50 µM | TGI (NCI-H23 lung): > 50 µM | TGI (OVCAR-4 ovarian): > 50 µM | TGI (RXF 393 renal): > 50 µM | TGI (U251 CNS): > 50 µM

Cc1cccc(Nc2cn(CCOc3ccccc3)c(=O)[nH]c2=O)c1
TGI (CAKI-1 renal): > 100 µM | TGI (DU-145 prostate): > 100 µM | TGI (MCF7 breast): > 100 µM | TGI (MDA-MB-435): > 100 µM | TGI (MDA-N): > 100 µM | TGI (NCI-H23 lung): > 100 µM | TGI (OVCAR-4 ovarian): > 100 µM | TGI (RXF 393 renal): > 100 µM | TGI (SK-MEL-5 melanoma): 70.2 µM | TGI (U251 CNS): > 100 µM

O=[N+]([O-])c1ccccc1S(=O)(=O)N1CCCc2cc(Cl)ccc21
TGI (CAKI-1 renal): > 100 µM | TGI (DU-145 prostate): > 100 µM | TGI (HT29 colon): 51.3 µM | TGI (MCF7 breast): > 80.3 µM | TGI (MDA-MB-435): 41.7 µM | TGI (MDA-N): > 48.2 µM | TGI (NCI-H226 lung): > 100 µM | TGI (NCI-H23 lung): > 100 µM | TGI (OVCAR-4 ovarian): > 100 µM | TGI (RXF 393 renal): 74.1 µM | TGI (SK-MEL-5 melanoma): > 100 µM

CC1CCN(c2nnc(Cl)cc2C(=O)c2ccccc2)CC1
TGI (CAKI-1 renal): 34 µM | TGI (DU-145 prostate): > 100 µM | TGI (HT29 colon): 39.5 µM | TGI (MCF7 breast): 36.9 µM | TGI (MDA-MB-435): 56.9 µM | TGI (MDA-N): 53.2 µM | TGI (NCI-H23 lung): 82.4 µM | TGI (OVCAR-4 ovarian): > 100 µM | TGI (RXF 393 renal): 53.9 µM | TGI (SK-MEL-5 melanoma): 31.1 µM | TGI (U251 CNS): > 100 µM

COC(=O)CCCc1ccc2c(c1)CCC2
TGI (CAKI-1 renal): > 100 µM | TGI (DU-145 prostate): > 100 µM | TGI (MCF7 breast): > 100 µM | TGI (MDA-MB-435): > 100 µM | TGI (MDA-N): > 100 µM | TGI (NCI-H226 lung): > 100 µM | TGI (NCI-H23 lung): > 100 µM | TGI (OVCAR-4 ovarian): > 100 µM | TGI (SK-MEL-5 melanoma): > 100 µM | TGI (U251 CNS): > 100 µM

CC(C)=NN/C(=N\S(=O)(=O)c1cc(Cl)c(Oc2ccc([N+](=O)[O-])cc2Cl)c(Cl)c1)Nc1ccc(Cl)cc1
TGI (CAKI-1 renal): > 100 µM | TGI (DU-145 prostate): > 100 µM | TGI (HT29 colon): > 100 µM | TGI (MCF7 breast): > 100 µM | TGI (MDA-MB-435): > 100 µM | TGI (MDA-N): > 100 µM | TGI (NCI-H226 lung): > 100 µM | TGI (NCI-H23 lung): > 100 µM | TGI (OVCAR-4 ovarian): > 100 µM | TGI (SK-MEL-5 melanoma): > 100 µM | TGI (U251 CNS): > 100 µM
